Results on 1 molecule are retold here after patent publication US20100160361A1, “TREATMENT OF MAJOR ADVERSE CARDIAC EVENTS AND ACUTE CORONARY SYNDROME USING SECRETORY PHOSPHOLIPASE A2 (SPLA2) INHIBITOR OR SPLA2 INHIBITOR COMBINATION THERAPIES” (priority 2008, published 2010).

Data set [1] can be described thus: Pharmacokinetics of A-002. As to conditions: in vivo.
In data set [2] the test system is stable CVD population. The conditions noted are these: cited from earlier work.

The structures appear in SMILES notation.

In the case of `CCc1c(C(=O)C(N)=O)c2c(OCC(=O)OC)cccc2n1Cc1ccccc1` [A-002, [[3-(2-Amino-1,2-dioxoethyl)-2-ethyl-1-(phenylmethyl)-1H-indol-4-yl]oxy]acetic acid methyl ester], in data set [1], the “absorption and conversion to active molecule” value was “rapidly absorbed and hydrolyzed to the active A-001 molecule”. In data set [2] (once- or twice-daily administration, stable CVD population, diabetic and high baseline LDL-C subpopulations), the “effect on cholesterol levels” value was “decreases total cholesterol, LDL-C, total LDL-C particle, and small LDL-C particle levels”. For the same molecule, in data set [2] (stable populations), the “effect on inflammatory markers” value was “decreases levels of various inflammatory markers such as hs-CRP and sPLA2”.
